The source of these data is US20250108064A1, “PHOSPHATE PRODRUGS OF CANNABINOIDS” (priority 2021, published 2025).

≈ marks a conversion by molar mass, not a printed value.

A short description of data set [1]: physchem. Type of data set: physicochemical. The following applies: aqueous buffer, kinetic from dmso stock; nephelometry, PBS pH 7.0-7.3, 1% DMSO, 25° C., 90 min. As to the method:
General Experimental: Nephelometry experiments were performed using untreated Corning® Costar® 96-well black polystyrene plates with clear flat bottoms. Sample stock solutions and serial dilutions were prepared with DriSolv® DMSO purchased from MilliporeSigma. All 100-fold dilutions and replicate experiments were prepared using Gibco® Dulbecco's phosphate-buffered saline (DPBS, no calcium, no magnesium) with a pH range of 7.0-7.3 as aqueous media. […] Nephelometry data was obtained using a NEPHELOstar® microplate reader and processed with MARS data analysis software from BMG LabTech.
Procedure for Nephelometry Experiments: Tested compounds were dissolved in 100% DMSO to make stock solutions of specified concentrations, ranging from 10 mM minimum up to 50 mM maximum. The sample then underwent serial dilution in a 96-well plate (Corning® Costar®). Well A1 of the plate contained 100% DMSO. […] Using a 12 channel multichannel pipette, 2.5 μL of sample from row A was transferred to each well in row B through row H of the plate. Next, 30 μL of PBS (pH=7.0-7.3) was added to row B through row H, providing each well with 32.5 μL. The plate was then incubated for 30 sec with shaking. Finally, 217.5 μL of PBS buffer was added to row B through row H, and the entire plate was incubated with shaking at 25° C. for 90 min. Note: The final volume of DMSO in actual experiments with PBS buffer was 1% throughout the plate. After 90 min, the 96-well plate was analyzed with a NEPHELOstar® instrument and the data was processed with MARS data analysis software.

Data set [2] can be described thus: Simulated Gastric Fluid stability assay. The following applies: simulated gastric fluid (SGF) with pepsin, pH 1.2; SGF pH about 1.2 with pepsin, 37° C.; read-out: T½ in SGF (converted). The format is in vitro ADME. As to the method:
General Experimental: Simulated Gastric Fluid (SGF) is a pH 1.2 HCl solution with purified pepsin (800-2500 units of activity) (Test Solutions, The United States Pharmacopoeia (USP), 2008). SGF was prepared according to a procedure described in Test Solution—USP and other published articles (Bioorganic Chemistry, 49 (2013), 40-48). Sodium chloride 0.20 g and purified pepsin 0.32 g (Sigma), derived from porcine stomach mucosa with an activity of 800 to 2500 units per mg of protein, were dissolved in 0.70 mL hydrochloric acid and sufficient water to make 100 mL. […] The SGF solution prepared was used for in vitro studies to evaluate the prodrug stability.
At specified time intervals, aliquots (100 μL) were withdrawn and added to pre-cooled 100% acetonitrile (200 μL spiked with ISTD) and mixed well by vortex mixing for 2 min. The mixture was centrifuged at 13000 rpm for 15 min at 4° C.

A short description of data set [3]: Liver microsome stability assay (HLM). The format is in vitro ADME. The following applies: human, microsomes, pH 7.4; 3 μM test compound, NADPH; read-out: T½ in HLM. As to the method:
(§1) General Experimental: Human and mouse liver microsomes were purchased from Xenotech at 20 mg/mL. NADPH (Sigma-Aldrich) 10 mM stocks were prepared in deionized water.
(§2) Procedure for Liver Microsome Stability Assay: Test compounds and positive controls were dissolved in 100% DMSO to make 10 mM stock solutions. Verapamil (Sigma-Aldrich) and diphenhydramine (Sigma-Aldrich) were used as positive controls for both human liver microsomes (HLM) and mouse liver microsomes (MLM). The 10 mM stock solutions of test and control compounds were further diluted in potassium phosphate buffer (100 mM, pH 7.4) to 500 μM to ensure that the organic solvent content was <0.2%. The liver microsome (HLM or MLM) assay was prepared in a 1.5 mL Eppendorf tube with a final volume of 1100 μL for duplicate runs. Each reaction contained phosphate buffer (928.4 μL), liver microsomes (55 μL), and test compound (6.6 μL of 500 μM), resulting in a final concentration of 3 μM for the test compound. The reaction was initiated with 110 μL of 10 mM NADPH. Aliquots (100 μL) were removed in duplicate at 0, 5, 10, 15, and 30 min and quenched in […] of 100% cold methanol which contained internal standard (ISTD: d5-7-ethoxy coumarin 2 μM). The aliquots were centrifuged at 12,000 g for 5 min, and the supernatant was transferred and placed in an LC-MS vial. Each time point was assessed by LC-MS/MS, and the area under the m/z curve (AUC), based on the MRM transition, was integrated w.r.t the ISTD. Positive controls were conducted at a final volume of 550 μL to enable a single run for each time point. Negative controls in the absence of NADPH were performed with the test and control compounds, respectively, at a final volume of 150 μL and measured at the most prolonged time point. Control compounds were processed and analyzed like test compounds. Each time point was run in triplicates on LC-MS/MS followed by in-between blank washes to avoid the carryover and to equilibrate the column. Half-life (T1/2) was calculated using the data obtained from LC-MS/MS and by plotting ln (% remaining of the parent prodrug) versus time and performing linear regression to determine slope. Slope=−k and T1/2=0.693/k for first-order kinetics.
On the technique in general: Liver microsomes are vesicles of endoplasmic reticulum, rich in cytochrome P450 enzymes.

Data set [4] is described as follows: Liver microsome stability assay (MLM). Type of data set: in vitro ADME. To be noted: mouse, mouse liver microsomes, pH 7.4; 3 μM test compound, NADPH; read-out: T 1/2 in MLM. As to the method:
as §1
as §2, with “Each time point was run in triplicates on LC-MS/MS followed by in-between blank washes to avoid the carryover and to equilibrate the column.” left out, “Slope=−k and T1/2=0.693/k for first-order kinetics.” left out

A short description of data set [5]: Plasma stability assay (human plasma). To be noted: 37° C., unit min, read-out: T½ in human plasma (converted). Type of data set: in vitro ADME. As to the method: General Experimental: Procaine and Procainamide were purchased from Sigma-Aldrich. Human plasma was obtained from BioIVT (Cat. No. […]2N) and 1X Dulbecco's PBS (pH 7.4, Gibco) was obtained from Thermos Fischer. Stock solutions were prepared in 100% DMSO, and suitable dilutions of target analytes were prepared in methanol for method development.
Procedure for Plasma Stability Assay: Test compounds were dissolved in DMSO to make a stock solution of 10 mM and then diluted to 500 μM in buffer (or 70% MeOH). Human plasma was thawed at ambient temperature and is aliquoted ([…]) to a 1.5 mL Eppendorf tube in duplicates (A and B) for each compound. Plasma was incubated at 37° C. for 10 minutes in an incubator shaker at 150 rpm; the reaction was initiated by the addition of the test compound (6.0 μL) and vortex mixing. The total reaction volume was 1000 μL where the final organic solvent concentrations were 0.6% MeOH and 0.03% DMSO. The spiked plasma samples were incubated at 37° C. for 4 hrs. The reactions were terminated at time points 0, 15, 30, 60, 120, 180, and 240 min by taking a 100 μL aliquot from the test incubation mixture and immediately quenching it in ice-cold acetonitrile containing internal standard (150 μL with 2 μM ISTD), followed by a quick vortex mixing. In addition, matrix blank was prepared by adding acetonitrile solutions containing ISTD to plasma samples without any of the analytes or control compounds. Also, an additional tube was made to measure compound degradation in PBS buffer. The samples were centrifuged at 15000 rpm for 25 min at 4° C. The supernatant was transferred to an LC-MS vial for analysis by LC/MS-MS. Each time point was run in duplicates followed by in-between blank washes to avoid the carryover and to equilibrate the column. Half-life (T1/2) was calculated using the data obtained from LC-MS/MS and by plotting ln (% remaining of the parent prodrug) versus time and performing linear regression to determine slope. Slope=−k and T1/2=0.693/k for first-order kinetics.
These positive controls were run in parallel to test the systems for competency.

Data set [6] is described as follows: Plasma stability (mouse plasma). Type of data set: in vitro ADME. The following applies: read-out: T½ in mouse plasma (converted).
For data set [7] the following is noted: daily oral doses of 10 mg/kg chronically administered; cited from earlier work.

A word on the solubility: it is the concentration that dissolves in the medium under given conditions. Read a high solubility as a readily soluble substance. Regarding `C=C(C)[C@@H]1CCC(C)=C[C@H]1c1c(O)cc(CCCCC)cc1OC(=O)COP(=O)(O)O.N.N` [7a, 2-(((1′R,2′R)-6-hydroxy-5′-methyl-4-pentyl-2′-(prop-1-en-2-yl)-1′,2′,3′,4′-tetrahydro-[1,1′-biphenyl]-2-yl)oxy)-2-oxoethyl phosphate di-ammonium salt], the solubility in data set [1] is > 500 µM. Moreover, in data set [2], the half-life at 2 mM was 315 min. Besides, the half-life in data set [3] is 59 min; in data set [5], 20 min; in data set [6] (unit min), 4.5 min. Besides, in data set [4], the half-life at 3 μM came to 6.1 min.
Take `C=C(C)[C@@H]1CCC(C)=C[C@H]1c1c(O)cc(CCCCC)cc1O` [CBD, Cannabidiol, reference compound]: the concentration in solution in data set [1] (solubility) was 16.9 ± 0.55 µM (≈ 5.32 µg/mL). Further, the half-life at 2 mM in data set [2] was > 180 min. Further, the results for the half-life in data set [3] and in data set [6] were 5.8 min and 576 min, respectively. The half-life at 3 μM in data set [4] is 2.9 min. The mean plasma concentration in data set [7] is 5.9 to 11.2 ng/mL.
